Among the data in PubChem BioAssay AID1259321 (Sanford-Burnham Center for Chemical Genomics, 2017) are IC50 values, retold here.

pIC50: −log10 of the molar value. Several values for one entry are separate records, joined by “and”; a condition that tells them apart may be missing. Equal entries are not always repeated. Activity calls are given as the source filed them.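 Rule for the calls: active = half-maximal concentration for changing protein binding to DNA, from the fitted dose curve, below 10 micromolar; inactive = the rest.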

For the assay, the target named is Nuclear receptor subfamily 1 group D member 1 (Homo sapiens) (UniProt P20393). Nature of the assay: Rev-erbα–DNA interaction modulators – biochemical, FITC-DNA, fluorescence polarization, dose response (AID 1259321). As to conditions: Rev-erb alpha-FITC-DNA binding.
Sequence of Nuclear receptor subfamily 1 group D member 1 (Homo sapiens) (P20393 whole entry, looked up): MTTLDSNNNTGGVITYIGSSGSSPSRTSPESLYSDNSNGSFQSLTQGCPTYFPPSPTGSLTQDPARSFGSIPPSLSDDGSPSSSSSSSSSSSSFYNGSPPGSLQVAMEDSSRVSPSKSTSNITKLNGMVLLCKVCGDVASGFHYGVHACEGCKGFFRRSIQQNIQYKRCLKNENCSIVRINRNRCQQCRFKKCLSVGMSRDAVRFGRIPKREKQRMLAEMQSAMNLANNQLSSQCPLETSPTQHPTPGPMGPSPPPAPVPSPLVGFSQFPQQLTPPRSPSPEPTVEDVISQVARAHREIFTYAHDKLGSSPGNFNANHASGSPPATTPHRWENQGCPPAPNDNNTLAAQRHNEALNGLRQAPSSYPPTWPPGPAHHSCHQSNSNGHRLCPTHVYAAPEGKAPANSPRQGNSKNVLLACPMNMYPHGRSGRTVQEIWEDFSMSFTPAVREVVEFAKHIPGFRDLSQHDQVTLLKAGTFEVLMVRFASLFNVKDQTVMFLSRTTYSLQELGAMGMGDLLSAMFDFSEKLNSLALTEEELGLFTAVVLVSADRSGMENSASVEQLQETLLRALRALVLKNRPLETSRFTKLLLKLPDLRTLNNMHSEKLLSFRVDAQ

For `Cc1c(Cl)cc(C(C)C)c(O)c1CN1CCOCC1`, the IC50 was > 40 µM (inactive).
`CC(=O)Nc1ccc(Nc2c3c4c(cccc4n(C)c2=O)C(=O)c2ccccc2-3)cc1`: the pIC50 was 5.28.
Turning to `COCCCNc1nc2c(-c3ccc(C)cc3)nnn2c2ccccc12`, the pIC50 was 5.29.
Same read-out and setting: the result for `O=C(NCc1ccccc1)C(c1cccc2ccccc12)n1c(=O)c(-c2ccccc2)nc2ccccc21` (configuration not stated) reads 5.79; that for `CCN(Cc1nc2cc(Cl)ccc2c(=O)[nH]1)C(=O)c1cc2c(s1)CCCCC2`, 5.49.
Take `C=CCSc1nc(N)c(C#N)c(-c2ccccc2)c1C#N`: the IC50 entry is “inactive”.
Turning to `COc1cc(N2N=C(c3ccccc3)CC2c2ccccc2)c(C=O)cc1C=O` (configuration not stated), the negative-log IC50 (pIC50) was 5.34.
As to `CCCCN1C(=O)/C(=C/C=C2/CC(C)(C)CN2C)SC1=S`, the IC50 was > 40 µM (inactive).
Still for that read-out and setting: the result for `CC(=O)c1ccc(Nc2ncnc3ccc(Br)cc23)cc1` reads “inactive”.
Regarding `CCN(CC)c1ccc(/C=C(\C#N)C(=O)c2ccc(Br)cc2)cc1`, the IC50 entry was “inactive”.
As for `COc1cc(NC(=O)CCn2c(=S)[nH]c3ccccc3c2=O)cc(OC)c1OC`, the IC50 entry is “inactive”.
As to `CN(C)c1nc(-c2cccnc2)nc(-c2ccccc2)c1C#N`, the IC50 entry is “inactive”.
In the case of `CCn1cc(C(=O)NCCc2ccccc2C)c(=O)c2ccc(C)nc21`, the pIC50 was 5.94.
Consider `Cc1ccc2nc(/C(C#N)=C/c3ccc(-c4ccccc4C(=O)O)o3)[nH]c2c1`, for which the IC50 entry is “inactive”.
As for `Cc1ccc(-c2nn(C)c(=O)c3ccccc23)cc1S(=O)(=O)N1CCCC1`, the IC50 was > 40 µM (inactive).
For `O=C(NCCc1ccccc1)c1ccc2c(c1)S(=O)(=O)c1cc(Cl)ccc1C2=O`, the pIC50 is 5.74.
Consider `Cc1cccc(NC(=O)CSc2ncnc3c2oc2ccccc23)c1`, for which the pIC50 is 6.21.
With `Cc1cc(C)c2nc(SCC(=O)N(C)C3CCS(=O)(=O)C3)cc(C)c2c1` (configuration not stated), the pIC50 is 5.20.
Still for that read-out and setting: the result for `Cn1c(=O)c(NCCO)c2c3c(cccc31)C(=O)c1ccccc1-2` reads 5.44.
Turning to `Nc1cccc(N2C(=O)c3cccc4c(N)ccc(c34)C2=O)c1`, the IC50 entry is “inactive”.
Still for that read-out and setting: the result for `COc1ccccc1-c1ccc2c(c1)C(C)(Cc1cc(Cl)ccc1C(F)(F)F)C(=O)N2` (configuration not stated) reads > 40 µM (inactive); that for `CCOC(=O)c1c(C2CC2)csc1NC(=O)COC(=O)c1cnc(Cl)c(Cl)c1`, “inactive”.
For the compound `CCOc1ccc2cc(C#N)c(SCC(=O)OC)nc2c1`, the pIC50 is 5.43.
Still for that read-out and setting: the result for `CCCCN1C(=O)/C(=C/C=C2\Oc3ccccc3N2CC)SC1=S` reads 5.36.
In the case of `CC(=O)Nc1ccc(O)c(-c2nc3ccccc3s2)c1`, the IC50 entry was “inactive”.
Turning to `CC1(Cc2ccccc2Cl)C(=O)Nc2ccc(OC(F)(F)F)cc21` (configuration not stated), the pIC50 was 5.20.
Consider `CCOC(=O)c1nn(-c2ccc(F)cc2)c(=O)cc1OCC(=O)Nc1ccc(F)c(F)c1`, for which the IC50 is > 40 µM (inactive).
With `Cc1ccc(S(=O)(=O)c2nnn3c2nc(N2CCN(c4ccccn4)CC2)c2ccccc23)cc1`, the pIC50 is 6.06.
With `C=CCn1c(SCC(=O)Nc2sccc2C#N)nc2sc(C)c(C)c2c1=O`, the IC50 is > 40 µM (inactive).
Turning to `CCCN=C(C)c1c(-c2ccccc2)[nH]n(-c2nc3ccccc3s2)c1=O`, the negative logarithm of the IC50 (pIC50) is 6.04.
Still for that read-out and setting: the result for `COc1ccccc1-c1nc(SCC(=O)Nc2cc(C)on2)c2c(=O)n(C)c(=O)n(C)c2n1` reads 5.27.
On to `Cc1nc2nc(SCC(=O)c3ccccc3)[nH]c2cc1Br`, for which the IC50 was > 40 µM (inactive).
Consider `COC(=O)c1cc(-c2cc3ccccc3s2)c(=O)n2c1CCC2`, for which the pIC50 is 5.13.
As for `COC(=O)c1ccccc1NC(=O)c1cn(-c2ccc(C)c(C)c2)c(=O)c2ccccc12`, the IC50 result was “inactive”.
Same read-out and setting: the result for `CCN(CC)S(=O)(=O)c1ccc(N2CCCCC2)c(NC(=O)C2CSC3(C)CCC(=O)N23)c1` (configuration not stated) reads “inactive”; that for `N#Cc1ccsc1NC(=O)COC(=O)c1cc(Br)ccc1O`, “inactive”.
Regarding `CC(C)(C)C(=O)Nc1cc(S(=O)(=O)N2CCCCC2)ccc1N1CCCCC1`, the IC50 is > 40 µM (inactive).
With `CCOC(=O)N1CCC(n2c(SCC(=O)c3ccccc3)nc3ccsc3c2=O)CC1`, the pIC50 was 5.65.
Same read-out and setting: the result for `COc1ccc(C#Cc2ccc(C3=CC(=O)CC(C)(C)C3=O)cc2)cc1` reads 6.33.
Regarding `O=C1/C(=C\c2cc(Cl)c(O)c(Cl)c2)SC(=S)N1Cc1ccccc1`, the IC50 was > 40 µM (inactive).
As to `Cc1ccc2[nH]c(=O)c(CN(C(=O)c3cccs3)c3ccccc3)cc2c1`, the negative logarithm of the IC50 (pIC50) was 5.42.
Regarding `COC(=O)Cn1c(C)c(/C=C/c2cc[n+](C)cc2)c2ccccc21`, the pIC50 was 5.65.
With `CCN(CC)C(=O)CSc1nc2cc3c(cc2c(=O)n1Cc1ccc(OC)cc1)OCO3`, the IC50 is > 40 µM (inactive).
Take `CCc1ccc2n(-c3ccc(OC)cc3)c([S-])c(C(=O)Nc3cc(C)cc(C)c3)[n+]2c1`: the pIC50 was 5.57.
With `COc1cc(/C=N/NC(=O)c2c(C)nc3ccc(Cl)cn23)cc(OC)c1OC`, the IC50 was > 40 µM (inactive).
As to `COc1cccc(CNC(=O)CCCn2c(=S)[nH]c3cc4c(cc3c2=O)OCO4)c1`, the negative-log IC50 (pIC50) was 6.21.
On the same count and under the same terms, the result for `CC(C)CCN1C(=O)c2cccc3c(N)ccc(c23)C1=O` reads 5.55; that for `CCOC(Cn1c(SCc2cc(C(C)=O)ccc2OC)nc2ccccc2c1=O)OCC`, 5.03; that for `COc1ccc(NC(=O)NNC(=O)COc2ccc3cc(Br)ccc3c2)cc1OC`, 5.08.
With `Cc1cc(C)c(NC(=O)COc2ccccc2C(=O)Nc2ccc3c(c2)oc2ccccc23)c(C)c1`, the IC50 was > 40 µM (inactive).
With `COc1ccc(-n2nc(C(=O)NCC(=O)Nc3cccc(Cl)c3)c3ccccc3c2=O)cc1OC`, the pIC50 was 5.59.
`Oc1ccccc1-c1nc(NCc2ccccc2)c2ccccc2n1`: the IC50 was > 40 µM (inactive).
Still for that read-out and setting: the result for `O=C1c2cccc3c(N4CCCCC4)ccc(c23)C(=O)N1CCO` reads “inactive”; that for `OCC[n+]1ccc(/C=C/c2c[nH]c3ccccc23)cc1`, > 40 µM (inactive); that for `Cc1cc(NC(=O)c2cccs2)cc(-c2nc3ncccc3o2)c1O`, “inactive”.
Take `Fc1ccc2nc(Nc3nc4cc5c(cc4s3)OCCO5)sc2c1`: the negative-log IC50 (pIC50) was 5.16.
Same read-out and setting: the result for `O=C(OCCN1C(=O)c2cccc3c(N4CCOCC4)ccc(c23)C1=O)c1ccc(Cl)cc1` reads 5.29; that for `COc1ccc(C(C)=O)cc1CSc1nc2ccccc2c(=O)n1-c1cccc(C)c1`, 5.66.
On the same count and under the same terms, the result for `N#CCNC(=O)c1nn2c(C(F)(F)F)cc(-c3ccccc3)nc2c1Br` reads 5.45; that for `CN(CC(=O)Nc1ccc(Cl)cc1)S(=O)(=O)c1ccc2c(c1)n(C)c(=O)c(=O)n2C`, 5.26.
In the case of `Nc1ccc2cc3ccc(N)cc3nc2c1`, the IC50 was > 40 µM (inactive).
Regarding `COc1ccc(C(=O)Nc2nc(C)c(C(C)=O)s2)cc1S(=O)(=O)N1CCOCC1`, the IC50 was > 40 µM (inactive).
As to `CC(C)c1nc2sc3c(SCC(N)=O)ncnc3c2c2c1CCC2`, the pIC50 is 5.46.
As for `Cc1cccc(Nc2nn3c(=O)c4ccccc4nc3s2)c1`, the pIC50 was 5.39.
Same read-out and setting: the result for `COc1ccccc1C(=O)Nc1nnc(-c2ccc(F)cc2)s1` reads 5.50; that for `COc1ccc(CC(=O)Nc2ccc(-c3noc(-c4ccccc4OC)n3)cc2)cc1`, 5.38.
On the same count and under the same terms, the result for `O=C1c2c(Br)c(Br)c(Br)c(Br)c2C(=O)N1c1ccccn1` reads 5.08.
Regarding `CCN(CC)C(=O)c1ccc(/C=C/c2c[nH]c3ccccc23)[n+](C)c1`, the IC50 entry was “inactive”.
Turning to `CC(C)n1cc(/C=C/c2cc[n+](C)cc2)c2ccccc21`, the IC50 result was “inactive”.
On the same count and under the same terms, the result for `COC1C(CO)OC(n2c3c(Cl)cccc3c3c4c(c5c6cccc(Cl)c6[nH]c5c32)C(=O)NC4=O)C(O)C1O` (configuration not stated) reads “inactive”.
Regarding `N#Cc1ccc(Oc2ccc(-c3nc4ccccc4nc3-c3ccccc3)cc2)cc1C#N`, the pIC50 is 5.35.
Regarding `Cc1ccc(CNc2nc3ccccc3n3nnnc23)cc1`, the IC50 entry was “inactive”.
As for `CCOc1ccc(-c2nnc3ccc(SCC(=O)Nc4nc5ccc(C)cc5s4)nn23)cc1`, the pIC50 was 5.15.
As for `CCCOc1ccc(C(=O)Nc2nc(C)c(Cc3ccc4c(c3)OCO4)s2)cc1`, the IC50 result was “inactive”.
`C[n+]1c2cc(N)ccc2cc2ccc(N)cc21`: the pIC50 was 5.57 and 5.10.
For the compound `COc1ccc(C(=O)COC(=O)c2cc(=O)[nH]c3ccccc23)c(OC)c1`, the IC50 result was “inactive”.
`O=C(CSc1nnc(-c2ccncc2)n1-c1ccc(Cl)cc1)c1ccc(Cl)c(Cl)c1`: the pIC50 is 6.56.
In the case of `CC(C)(C#N)Cc1cc(CC(C)(C)C#N)cc(C(C)(C)C)c1`, the pIC50 was 5.39.
The same measure, in the same setting: the result for `Cc1ccc(C(=O)Nc2cccc(C(F)(F)F)c2)cc1NC(=O)c1nccn1C` reads 5.16.
With `Nc1ccc2c3c(cccc13)C(=O)N(c1ccccc1)C2=O`, the IC50 entry was “inactive”.
As to `COc1ccc(C)cc1Nc1nc(-c2ccccc2O)nc2ccccc12`, the pIC50 is 5.39.
As to `CCc1nnc(NC(=O)c2oc3ccc(Br)cc3c2C)s1`, the pIC50 was 5.21.
In the case of `CCc1cc2ccc(OC)cc2nc1SCC(=O)Nc1cc(C)on1`, the IC50 is > 40 µM (inactive).
In the case of `CCOc1ccc(NC(=O)CSc2ncnc3c2sc2ccccc23)cc1`, the pIC50 was 5.20.
Same read-out and setting: the result for `Cc1[nH]c2ccccc2c1/C=C/c1cc[n+](C)cc1` reads 5.36.
For `CC1(C)Cc2nc3sc4c(SCC(=O)NC(c5ccccc5)c5ccccc5)ncnc4c3cc2CO1`, the IC50 is > 40 µM (inactive).
Same read-out and setting: the result for `O=C(Nc1nnc(C2CCCCC2)s1)c1ccc(Br)s1` reads “inactive”.
For the compound `COc1ccccc1C(=O)Nc1ccc2oc(-c3ccc(F)cc3)nc2c1`, the pIC50 is 6.36.
Still for that read-out and setting: the result for `COc1ccc(NC(=O)CSc2nc(N)c(C#N)cc2C#N)cc1` reads 5.24; that for `COc1ccccc1N1N=C(C(=O)c2ccccc2)C2C(=O)N(c3ccc(Br)cc3)C(=O)C21` (configuration not stated), 5.05; that for `Cc1ccc(N(Cc2cc3cc(C)ccc3[nH]c2=O)C(=O)c2cccs2)cc1`, 5.26.
For the compound `COc1nc(-c2ccc(Cl)cc2)ccc1-c1noc(-c2cccs2)n1`, the IC50 result is “inactive”.

Broadly, the IC50 is the midpoint of a concentration-inhibition curve. The term pIC50 denotes −log10 of the IC50, conventionally taken in molar units.
